Source: ChEMBL document CHEMBL1129756, “Conformationally restricted TRH analogs: a probe for the pyroglutamate region” (J Med Chem, 1996)
pEC50, pKi: −log10 of the molar value.

What was measured:
[1] = molecular target: T1, Thyrotropin-releasing hormone receptor (Mus musculus, UniProt P21761); experiment: Binding affinity against TRH-R receptor in AtT-20 mouse pituitary tumor cells
T1 sequence (P21761 whole entry): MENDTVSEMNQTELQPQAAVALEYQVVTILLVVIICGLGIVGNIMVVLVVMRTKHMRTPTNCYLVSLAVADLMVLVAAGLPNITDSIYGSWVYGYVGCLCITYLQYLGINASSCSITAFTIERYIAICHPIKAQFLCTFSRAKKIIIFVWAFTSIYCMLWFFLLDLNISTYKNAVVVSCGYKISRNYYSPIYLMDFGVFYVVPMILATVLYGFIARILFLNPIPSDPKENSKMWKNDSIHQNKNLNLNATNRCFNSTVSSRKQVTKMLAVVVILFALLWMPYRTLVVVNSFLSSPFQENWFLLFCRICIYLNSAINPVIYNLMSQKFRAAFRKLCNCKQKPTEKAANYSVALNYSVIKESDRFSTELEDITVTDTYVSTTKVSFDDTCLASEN

[2] = molecular target: T1, Thyrotropin-releasing hormone receptor; experiment: Effective concentration required to activate TRH-R receptor in AtT-20 mouse pituitary tumor cells

Row | pKi [1] | pEC50 [2] | Compound
1 | 8.92 | – | Cn1cnc(C[C@H](NC(=O)[C@@H]2CCC(=O)N2)C(=O)N2CCC[C@H]2C(N)=O)c1
2 | 5.36 | 6.54 | NC(=O)[C@@H]1CCCN1C(=O)[C@H](Cc1ccccc1)N1CC[C@]2(CCC(=O)N2)C1=O
3 | – | 9.17 | NC(=O)[C@@H]1CCCN1C(=O)[C@H](Cc1cnc[nH]1)NC(=O)[C@@H]1CCC(=O)N1 [PROTIRELIN]
